Assay results from article PMC7332385 (Journal of the American Society for Mass Spectrometry, 2020).
Read-outs that look alike come from different tables or passages of the source.

Assays:
β-2-microglobulin (β2m) [1] = settings: read-out: Kd for Cu(II) bound to β2m, cited from earlier work
β-2-microglobulin (β2m) [2] = settings: read-out: EGCG-β2m Kd; from size exclusion chromatography data; cited from earlier work
[3] = target: Cu(II)-β2m (β-2-microglobulin) (Homo sapiens, UniProt P61769); test: CL-MS ligand titration of Cu; type: binding; settings: read-out: Cu(II)-β2m and EGCG Kd; DEPC (120 μM) labeling of the N-terminal amine; 30 μM β2m, 60 μM Cu(II); triplicate
Chain of Cu(II)-β2m (β-2-microglobulin) (P61769 21-119): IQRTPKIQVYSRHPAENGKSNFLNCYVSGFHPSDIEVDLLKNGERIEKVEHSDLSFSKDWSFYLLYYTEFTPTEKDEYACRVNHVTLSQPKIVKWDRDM

Structure (SMILES)	Kd (β-2-microglobulin (β2m) [1]; in the presence of EGCG) [µM]	Kd (β-2-microglobulin (β2m) [1]; without EGCG) [µM]	Kd (β-2-microglobulin (β2m) [2]) [µM]	Kd [3] [µM]
O=S(=O)([O-])[O-].[Cu+2] [Cu(II), copper sulfate]	49	3	–	–
O=C(O[C@@H]1Cc2c(O)cc(O)cc2O[C@@H]1c1cc(O)c(O)c(O)c1)c1cc(O)c(O)c(O)c1 [EGCG, epigallocatechin gallate]	–	–	6	12 ± 5
